Test results: ChEMBL document CHEMBL3351987, “Synthesis and biological evaluation of isoprenylated coumarins as potential anti-pancreatic cancer agents” (2014)

Key:
[1] = Cytotoxicity against human PANC1 cells under nutrient-deprived condition after 24 hrs by WST8 dye based assay; type: functional; settings: PANC-1, 24 h, read-out: LC50 (the source's name)
[2] = Cytotoxicity against human PANC1 cells under nutrient-rich condition after 24 hrs by WST8 dye based assay; type: functional; settings: PANC-1, 24 h, read-out: LC50 (the source's name)
PANC-1 [3] = test: Stimulation of cell growth in human PANC1 cells at 6.25 to 50 uM under nutrient-deprived condition after 24 hrs by WST8 dye based assay; type: functional
PANC-1 [4] = test: Induction of apoptosis in human PANC1 cells under nutrient-deprived condition after 24 hrs; type: functional, cell-based

Row | Compound | CC50 [1] [µM] | CC50 [2] [µM] | Activity (PANC-1 [3]) [%] | Activity (PANC-1 [4])
1 | CC(C)=CCC/C(C)=C/CC/C(C)=C/COc1ccc2ccc(=O)oc2c1 [UMBELLIPRENIN] | 18 | > 100 | – | –
2 | O=c1ccc2cc(O)ccc2o1 [6-HYDROXYCOUMARIN] | > 100 | > 100 | – | –
3 | CC(C)=CCC/C(C)=C/CC/C(C)=C/COc1cc2ccccc2oc1=O | 12 | > 100 | – | –
4 | CC(C)=CCC/C(C)=C/CC/C(C)=C/CO [FARNESOL] | – | > 100 | 40 | –
5 | CC(C)=CCO | > 100 | > 100 | – | –
6 | CC(C)=CCC/C(C)=C/COc1ccc2oc(=O)ccc2c1 | 12 | > 100 | – | –
7 | CC(C)=CCOc1ccc2ccc(=O)oc2c1 [7-PRENYLOXYCOUMARIN] | 83 | > 100 | – | –
8 | CC(C)=CCC/C(C)=C/COc1ccc2ccc(=O)oc2c1 [AURAPTENE] | 21 | > 100 | – | –
9 | CC(C)=CCC/C(C)=C/CC/C(C)=C/COc1ccc2oc(=O)ccc2c1 | 4 | > 100 | – | Dose-dependent effect
10 | CC(C)=CCOc1cc2ccccc2oc1=O | > 100 | > 100 | – | –
11 | CC(C)=CCC/C(C)=C/CO [GERANIOL] | – | > 100 | 20 | –
12 | O=c1ccc2ccc(O)cc2o1 [UMBELLIFERONE] | > 100 | > 100 | – | –
13 | CC(C)=CCC/C(C)=C/COc1cc2ccccc2oc1=O | 37 | > 100 | – | –
14 | O=c1oc2ccccc2cc1O [3-HYDROXYCOUMARIN] | > 100 | > 100 | – | –
15 | CC(C)=CCOc1ccc2oc(=O)ccc2c1 | > 100 | > 100 | – | –
